Species on record: Rattus norvegicus
Assay: DrugMatrix - Regimen: Daily Repeat
Assay type: toxicity, organism-based, Sprague-Dawley
Set-up: regimen Daily Repeat, gender Male, age 6-8 weeks
Settings: in vivo, po, route oral GAVAGE, vehicle .5 % CMC; for URIC ACID / ALANINE AMINOTRANSFERASE / ALBUMIN / ALKALINE PHOSPHATASE / ASPARTATE AMINOTRANSFERASE / BLOOD UREA NITROGEN / CARBON DIOXIDE / CHLORIDE / CHOLESTEROL / CREATINE PHOSPHOKINASE / CREATININE / GLUCOSE / LACTATE DEHYDROGENASE / LIPASE / PHOSPHORUS / POTASSIUM / SODIUM / TOTAL BILIRUBIN / TOTAL PROTEIN: tissue Plasma; for ABSOLUTE BASOPHIL / ABSOLUTE EOSINOPHIL / ABSOLUTE LYMPHOCYTE / ABSOLUTE MONOCYTE / ABSOLUTE SEGMENTED NEUTROPHIL / BASOPHIL / EOSINOPHIL / ERYTHROCYTE COUNT / HEMATOCRIT / HEMOGLOBIN / LEUKOCYTE COUNT / LYMPHOCYTE / MEAN CORPUSCULAR HEMOGLOBIN / MEAN CORPUSCULAR HEMOGLOBIN CONCENTRATION / MEAN CORPUSCULAR VOLUME / MONOCYTE / NEUTROPHIL / NUCLEATED RED BLOOD CELLS / PLATELET COUNT: tissue Blood
[1] = 3 mg/kg, 120 h, dose level Low, time 5 day
[2] = 29 mg/kg, 72 h, dose level High, time 3 day
[3] = 29 mg/kg, 120 h, dose level High, time 5 day

For `O=c1[nH]cc(F)c(=O)[nH]1` [FLUOROURACIL], the “URIC ACID” value (3 mg/kg, 72 h, dose level Low, time 3 day) was 2.6 mg/dL, the “ABSOLUTE BASOPHIL” value [1] was 0 CELLS/uL and the “ABSOLUTE EOSINOPHIL” value [1] was 0 CELLS/uL. For the same molecule, the “ABSOLUTE LYMPHOCYTE” value [1] was 14436 CELLS/uL, the “ABSOLUTE MONOCYTE” value [1] was 30.67 CELLS/uL and the “ABSOLUTE SEGMENTED NEUTROPHIL” value [1] was 1566.67 CELLS/uL. The BASOPHIL [1] was 0%, the EOSINOPHIL [1] was 0% and the “ERYTHROCYTE COUNT” value [1] was 6.23 x10E6/uL. For the same molecule, the HEMATOCRIT [1] was 38.2%, the HEMOGLOBIN [1] was 14.4 G/DL and the “LEUKOCYTE COUNT” value [1] was 16.03 x10E3/uL. The LYMPHOCYTE [1] was 88.67%, the “MEAN CORPUSCULAR HEMOGLOBIN” value [1] was 23.13 pg and the “MEAN CORPUSCULAR HEMOGLOBIN CONCENTRATION” value [1] was 37.73 G/DL. The “MEAN CORPUSCULAR VOLUME” value [1] was 61.3 fL, the MONOCYTE [1] was 0.33% and the NEUTROPHIL [1] was 11%. For the same molecule, the “NUCLEATED RED BLOOD CELLS” value [1] was 0 /100WBC, the “PLATELET COUNT” value [1] was 1198.67 x10E3/uL and the “ALANINE AMINOTRANSFERASE” value [1] was 42.67 u/L. For the same molecule, the ALBUMIN [1] was 4.47 G/DL, the “ALKALINE PHOSPHATASE” value [1] was 303.33 u/L and the “ASPARTATE AMINOTRANSFERASE” value [1] was 79 u/L. The “BLOOD UREA NITROGEN” value [1] was 16 mg/dL, the “CARBON DIOXIDE” value [1] was 27.67 mmol/L and the CHLORIDE [1] was 99.67 MEQ/L. For the same molecule, the CHOLESTEROL [1] was 71 mg/dL, the “CREATINE PHOSPHOKINASE” value [1] was 253.67 u/L and the CREATININE [1] was 0.22 mg/dL. For the same molecule, the GLUCOSE [1] was 146 mg/dL, the “LACTATE DEHYDROGENASE” value [1] was 229 u/L and the LIPASE [1] was 8.33 u/L. The PHOSPHORUS [1] was 11.5 mg/dL, the POTASSIUM [1] was 6.67 MEQ/L and the SODIUM [1] was 144.17 MEQ/L. The “TOTAL BILIRUBIN” value [1] was 0.2 mg/dL, the “URIC ACID” value [1] was 1.6 mg/dL and the “ABSOLUTE BASOPHIL” value [2] was 0 CELLS/uL. The “ABSOLUTE EOSINOPHIL” value [2] was 63.33 CELLS/uL, the “ABSOLUTE LYMPHOCYTE” value [2] was 11413 CELLS/uL and the “ABSOLUTE MONOCYTE” value [2] was 90.33 CELLS/uL. For the same molecule, the “ABSOLUTE SEGMENTED NEUTROPHIL” value [2] was 633.33 CELLS/uL, the BASOPHIL [2] was 0% and the EOSINOPHIL [2] was 0.67%. For the same molecule, the “ERYTHROCYTE COUNT” value [2] was 5.41 x10E6/uL, the HEMATOCRIT [2] was 34.9% and the HEMOGLOBIN [2] was 13.17 G/DL. The “LEUKOCYTE COUNT” value [2] was 12.2 x10E3/uL, the LYMPHOCYTE [2] was 93.67% and the “MEAN CORPUSCULAR HEMOGLOBIN” value [2] was 24.33 pg. For the same molecule, the “MEAN CORPUSCULAR HEMOGLOBIN CONCENTRATION” value [2] was 37.73 G/DL, the “MEAN CORPUSCULAR VOLUME” value [2] was 64.5 fL and the MONOCYTE [2] was 0.67%. For the same molecule, the NEUTROPHIL [2] was 5%, the “NUCLEATED RED BLOOD CELLS” value [2] was 0.33 /100WBC and the “PLATELET COUNT” value [2] was 1461.33 x10E3/uL. The “ALANINE AMINOTRANSFERASE” value [2] was 43.33 u/L, the ALBUMIN [2] was 4.47 G/DL and the “ALKALINE PHOSPHATASE” value [2] was 451.67 u/L. The “ASPARTATE AMINOTRANSFERASE” value [2] was 81.67 u/L, the “BLOOD UREA NITROGEN” value [2] was 15.67 mg/dL and the “CARBON DIOXIDE” value [2] was 26.33 mmol/L. The CHLORIDE [2] was 101.67 MEQ/L, the CHOLESTEROL [2] was 58.67 mg/dL and the “CREATINE PHOSPHOKINASE” value [2] was 429.33 u/L. The CREATININE [2] was 0.19 mg/dL, the GLUCOSE [2] was 206.33 mg/dL and the “LACTATE DEHYDROGENASE” value [2] was 150.67 u/L. The LIPASE [2] was 8 u/L, the PHOSPHORUS [2] was 12.07 mg/dL and the POTASSIUM [2] was 6.46 MEQ/L. The SODIUM [2] was 143.2 MEQ/L, the “TOTAL BILIRUBIN” value [2] was 0.17 mg/dL and the “TOTAL PROTEIN” value [2] was 6.07 G/DL. For the same molecule, the “URIC ACID” value [2] was 2.17 mg/dL, the “ABSOLUTE BASOPHIL” value [3] was 0 CELLS/uL and the “ABSOLUTE EOSINOPHIL” value [3] was 58 CELLS/uL. The “ABSOLUTE LYMPHOCYTE” value [3] was 4679.33 CELLS/uL, the “ABSOLUTE MONOCYTE” value [3] was 33 CELLS/uL and the “ABSOLUTE SEGMENTED NEUTROPHIL” value [3] was 263 CELLS/uL. The BASOPHIL [3] was 0%, the EOSINOPHIL [3] was 1% and the “ERYTHROCYTE COUNT” value [3] was 6.26 x10E6/uL. For the same molecule, the HEMATOCRIT [3] was 39%, the HEMOGLOBIN [3] was 15.3 G/DL and the “LEUKOCYTE COUNT” value [3] was 5.03 x10E3/uL. The LYMPHOCYTE [3] was 93%, the “MEAN CORPUSCULAR HEMOGLOBIN” value [3] was 24.43 pg and the “MEAN CORPUSCULAR HEMOGLOBIN CONCENTRATION” value [3] was 39.23 G/DL. The “MEAN CORPUSCULAR VOLUME” value [3] was 62.37 fL, the MONOCYTE [3] was 0.67% and the NEUTROPHIL [3] was 5.33%. The “NUCLEATED RED BLOOD CELLS” value [3] was 0 /100WBC, the “PLATELET COUNT” value [3] was 964.67 x10E3/uL and the “ALANINE AMINOTRANSFERASE” value [3] was 23.67 u/L. For the same molecule, the ALBUMIN [3] was 4.03 G/DL, the “ALKALINE PHOSPHATASE” value [3] was 148.33 u/L and the “ASPARTATE AMINOTRANSFERASE” value [3] was 75.67 u/L. For the same molecule, the “BLOOD UREA NITROGEN” value [3] was 18.67 mg/dL, the “CARBON DIOXIDE” value [3] was 25 mmol/L and the CHLORIDE [3] was 102.67 MEQ/L. The CHOLESTEROL [3] was 89.67 mg/dL, the “CREATINE PHOSPHOKINASE” value [3] was 751.33 u/L and the CREATININE [3] was 0.12 mg/dL. For the same molecule, the GLUCOSE [3] was 106.67 mg/dL, the “LACTATE DEHYDROGENASE” value [3] was 166.33 u/L and the LIPASE [3] was 7.33 u/L. It also gave a PHOSPHORUS [3] of 7.93 mg/dL, a POTASSIUM [3] of 5.82 MEQ/L and an SODIUM [3] of 150.33 MEQ/L. The “TOTAL BILIRUBIN” value [3] was 0.17 mg/dL, the “TOTAL PROTEIN” value [3] was 5.57 G/DL and the “URIC ACID” value [3] was 0.93 mg/dL.
